Entries after “also recorded” stand apart in the source; their conditions may differ.
What was measured:
human TLR8 = molecular target: T1, human TLR8 (Homo sapiens, UniProt Q9NR97); experiment: HEK293 assay for human TLR8 selectivity (NF-κB/SEAP); type: cell-based; details: selectivity counter-assay
T1 construct: host or cells: HEK293 cells with an NF-kB-responsive SEAP reporter gene
T1 sequence (Q9NR97 27-1041): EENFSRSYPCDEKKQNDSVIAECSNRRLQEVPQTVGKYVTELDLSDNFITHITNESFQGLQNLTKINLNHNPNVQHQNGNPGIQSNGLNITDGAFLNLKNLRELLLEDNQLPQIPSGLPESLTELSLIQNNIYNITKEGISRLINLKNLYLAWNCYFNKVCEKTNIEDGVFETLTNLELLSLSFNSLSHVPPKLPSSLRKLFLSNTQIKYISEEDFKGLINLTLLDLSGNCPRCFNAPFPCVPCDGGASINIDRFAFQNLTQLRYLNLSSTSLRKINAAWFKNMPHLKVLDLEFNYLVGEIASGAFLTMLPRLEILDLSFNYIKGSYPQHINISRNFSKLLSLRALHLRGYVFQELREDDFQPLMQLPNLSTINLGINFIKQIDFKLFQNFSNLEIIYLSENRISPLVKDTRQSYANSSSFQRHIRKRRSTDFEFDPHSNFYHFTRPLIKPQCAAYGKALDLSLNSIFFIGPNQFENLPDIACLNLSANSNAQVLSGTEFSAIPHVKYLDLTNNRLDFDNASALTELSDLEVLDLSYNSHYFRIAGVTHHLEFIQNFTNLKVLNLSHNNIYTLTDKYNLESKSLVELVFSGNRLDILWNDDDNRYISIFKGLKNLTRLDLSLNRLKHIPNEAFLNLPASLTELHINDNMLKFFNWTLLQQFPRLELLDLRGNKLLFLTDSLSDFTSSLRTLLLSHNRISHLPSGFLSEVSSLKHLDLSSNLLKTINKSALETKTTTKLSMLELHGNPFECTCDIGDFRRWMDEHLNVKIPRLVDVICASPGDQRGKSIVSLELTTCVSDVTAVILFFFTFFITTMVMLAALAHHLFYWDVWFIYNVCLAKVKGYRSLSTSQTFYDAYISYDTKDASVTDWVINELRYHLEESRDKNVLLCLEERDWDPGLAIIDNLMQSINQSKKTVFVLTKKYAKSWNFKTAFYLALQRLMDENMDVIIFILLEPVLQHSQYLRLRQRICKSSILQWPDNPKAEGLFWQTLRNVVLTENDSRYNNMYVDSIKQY
Description: HEK293 assay for human TLR2 and TLR8 selectivity: Human embryonic kidney (HEK) 293 cells expressing human TLR2 or TLR8 with an NF-κB-responsive secreted embryonic alkaline phosphatase (SEAP) reporter gene were obtained from Invivogen (San Diego, CA). Cells were maintained in RPMI or DMEM with 10% heat inactivated-FBS and selection antibiotics per the manufacturer's instructions. Cells were plated at 5×10^5 cells/96-well and stimulated with indicated agonist(s) for 24 hours. Supernatants were harvested and analyzed for NF-κB/SEAP activation using the QuantiBlue kit (Invivogen). Values are expressed as fold change in OD650 over vehicle-only treated samples.

[1] = tested on: NF-κB reporter THP1 cells; experiment: NF-kB-induced luminescence HTS in THP1-Lucia cells (384-well); type: cell-based, human; details: ranked at 3.3 μM; ~200,000 compounds tested; listed as 080
Text: HTS Overview: To identify immunomodulators/adjuvants that robustly activate human immune cells, ˜200,000 small molecules were screening in a THP1 cell-based assay. The chemical libraries screened included known bioactive and commercial libraries from various sources including commercial libraries such as ChemDiv, ChemBridge, and Asinex. All libraries were owned and provided by the Institute of Chemistry and Cell Biology (ICCB)—Longwood (Harvard Medical School). The project primary screen incorporated two distinct arms: a) a luciferase-based screen which corresponds to the relative activation of the NF-κB reporter; and b) a fluorescence-based screen, corresponding to the phenotypic adherence, a distinct marker of cell activation, of the human monocytic THP-1 cell lines. Described herein are small molecules identified in the screen that induce NF-kB activity based on a luciferase-based THP-1 cell screen.
THP-1 Cell Line and Culture Conditions. The THP1-Lucia™ cell line was obtained from Invivogen (San Diego, CA). THP1-Lucia cells, which are human monocytic cells derived from the blood of a child with leukemia, contain an NF-kB-inducible Luc reporter construct. This allows NF-kB activation to be measured by quantifying the luminescence from the secreted luciferase enzyme. THP1-Lucia cells were cultured in RPMI 1640 supplemented with 10% non-heat inactivated fetal bovine serum (FBS), 10 mM HEPES, 1.0 mM sodium pyruvate, 50 ug/ml Pen-Strep, and 100 ug/mL Normocin™. Once cultured, the cells were stored in a 37° C. incubator with 5% CO2 and a humidified atmosphere. Cells were passaged every 2-3 days and not allowed to exceed a concentration of 2.0×10^6 cells/ml media.
NF-kB-induced Luminescence Assay. THP1-Lucia cells between passage 15 and 18 and suspended in culture medium were dispensed into 384-well black clear-bottom plates (Corning 3712) at 30,000 cells/30 μl/well using a Combi liquid dispenser. To allow comparison to a benchmark small molecule with known immune stimulating activity, cells at the same concentration were stimulated with 50 μM R848, a TLR7/8 agonist, in 0.3% DMSO and added to every other well of column 24, which was left empty of cells, by multichannel pipette at the same volume. Five μl of 700 nM Phorbol myristate acetate (PMA) in THP1 culture media and 2.3% DMSO, a known peripheral blood cell mitogen, was added to every other well of column 23 by multichannel pipette (final concentration in well: 100 nM in 0.3% DMSO). Five μl of THP1 culture media with 2.3% DMSO was added to the remaining wells of column 23 by multichannel pipette (final concentration 0.3% DMSO). One hundred nl aliquots of library compounds diluted in 100% DMSO were transferred from their original 384-well plates to the assay plates using a Seiko pin transfer machine. Each library plate was pinned in duplicate, yielding two assay plates with identical conditions for comparison. Plates were then incubated for 24 hours at 37 C with 5% CO2 in humid conditions. Following incubation, 10 μL of supernatant was removed from each well and transferred to a white plate (Corning 3570) using a Vprep liquid transfer machine. 10 μL of recombinant Lucia protein (Invivogen) diluted 1:2000 in THP1 culture media was added to empty well 24P. Using a Combi liquid dispenser, 50 μL/well of Quanti-Luc substrate (Invivogen) diluted 1:3 in sterile water was added to the assay plate. Immediately after adding the substrate, the luminescence was read using a PerkinElmer Envision plate reader.

With CNC(=O)c1c(NC(=O)c2ccc(S(=O)(=O)N(C)C)cc2)sc2c1CCC2 [Compound 80] the “TLR8 induction in HEK TLR8 cells (SEAP)” value (human TLR8) was “without induction of TLR8” and the “Efficacy in activating NF-κB in THP1 cells (screening hits)” value [1] was “most effective NF-κB activators; also recorded: most effective NF-kB activators”.
